Experiments:
[1] = molecular target: T1, C-X-C chemokine receptor type 1 (Homo sapiens, UniProt P25024); also: in other assays of this panel Not Active means under 50% inhibition at 10 µM
T1 sequence (P25024 whole entry): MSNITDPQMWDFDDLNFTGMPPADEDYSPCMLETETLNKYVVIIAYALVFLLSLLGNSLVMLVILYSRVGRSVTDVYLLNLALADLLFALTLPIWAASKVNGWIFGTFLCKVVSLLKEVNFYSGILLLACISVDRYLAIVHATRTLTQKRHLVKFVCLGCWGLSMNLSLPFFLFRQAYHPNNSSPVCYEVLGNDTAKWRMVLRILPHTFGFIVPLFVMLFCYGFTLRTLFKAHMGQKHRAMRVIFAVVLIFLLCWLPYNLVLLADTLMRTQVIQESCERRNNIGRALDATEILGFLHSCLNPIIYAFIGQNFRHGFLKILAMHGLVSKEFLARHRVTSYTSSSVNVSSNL

[2] = molecular target: Substance-P receptor (Homo sapiens, UniProt P25103); assay type: cell membranes, CHO, Membrane; also: in other assays of this panel Not Active means under 50% inhibition at 10 µM
Substance-P receptor, sequence (P25103 whole entry): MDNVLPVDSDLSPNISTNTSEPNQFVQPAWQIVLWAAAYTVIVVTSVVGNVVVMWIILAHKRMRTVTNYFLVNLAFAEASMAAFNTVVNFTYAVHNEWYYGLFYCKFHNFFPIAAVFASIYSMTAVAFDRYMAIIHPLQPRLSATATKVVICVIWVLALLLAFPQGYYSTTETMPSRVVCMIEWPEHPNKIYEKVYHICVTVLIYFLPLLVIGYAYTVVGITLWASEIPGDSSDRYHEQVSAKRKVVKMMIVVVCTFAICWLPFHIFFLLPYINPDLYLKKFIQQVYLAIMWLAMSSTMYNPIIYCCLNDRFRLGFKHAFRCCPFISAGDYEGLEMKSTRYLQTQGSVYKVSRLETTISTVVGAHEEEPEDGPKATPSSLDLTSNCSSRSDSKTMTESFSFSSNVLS

[3] = DRUGMATRIX: Atrial Natriuretic Factor (ANF) radioligand binding (ligand: [125I] ANF (rat)); assay type: cell membranes, Cavia porcellus, Dunkin-Hartley, Adrenal gland, Membrane; details: Not Active = under 50% inhibition at 10 µM
[4] = molecular target: T2, Leukotriene C4 synthase (Cavia porcellus, UniProt A6XA80); assay type: tissue-based, Lung;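 also: enzyme inhibition assay of leukotriene C4 synthase, using LTA4 as the substrate; in other assays of this panel Not Active means under 50% inhibition at 10 µM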
T2 sequence (A6XA80 whole entry): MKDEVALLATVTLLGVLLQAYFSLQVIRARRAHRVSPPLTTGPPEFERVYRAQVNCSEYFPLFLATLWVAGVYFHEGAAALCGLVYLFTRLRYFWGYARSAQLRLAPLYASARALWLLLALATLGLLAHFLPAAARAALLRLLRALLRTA

[5] = molecular target: 5-hydroxytryptamine receptor 4 (Cavia porcellus, UniProt O70528); assay type: cell membranes, Dunkin-Hartley, Striatum, Membrane; also: in other assays of this panel Not Active means under 50% inhibition at 10 µM
5-hydroxytryptamine receptor 4, sequence (O70528 whole entry): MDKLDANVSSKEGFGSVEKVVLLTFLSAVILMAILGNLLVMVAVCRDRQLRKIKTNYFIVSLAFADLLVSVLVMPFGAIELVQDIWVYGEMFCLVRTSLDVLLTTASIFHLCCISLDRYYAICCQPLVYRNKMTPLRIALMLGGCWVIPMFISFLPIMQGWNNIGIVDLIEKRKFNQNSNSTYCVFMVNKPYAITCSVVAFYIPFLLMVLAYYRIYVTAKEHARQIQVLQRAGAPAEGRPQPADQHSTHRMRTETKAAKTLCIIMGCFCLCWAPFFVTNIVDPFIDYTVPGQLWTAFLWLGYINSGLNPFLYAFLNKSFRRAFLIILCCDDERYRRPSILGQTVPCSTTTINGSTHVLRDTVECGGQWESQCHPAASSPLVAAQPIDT

[6] = DRUGMATRIX: Phosphodiesterase PDE4 enzyme inhibition (substrate: [3H]cAMP + cAMP); details: u-937, Not Active = under 50% inhibition at 10 µM
[7] = molecular target: T3, Neutrophil elastase (Homo sapiens, UniProt P08246); assay type: tissue-based
T3 sequence (P08246 whole entry): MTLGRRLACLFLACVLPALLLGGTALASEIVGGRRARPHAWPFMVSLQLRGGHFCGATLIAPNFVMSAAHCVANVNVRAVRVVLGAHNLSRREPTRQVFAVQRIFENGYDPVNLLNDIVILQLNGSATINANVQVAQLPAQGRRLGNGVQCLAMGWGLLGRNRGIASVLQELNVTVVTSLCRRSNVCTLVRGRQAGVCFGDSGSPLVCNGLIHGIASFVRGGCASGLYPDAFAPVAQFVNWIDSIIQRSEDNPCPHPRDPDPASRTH

Cc1c(C)c2c(c(C)c1O)CCC(C)(CN1CCN(c3cc(N4CCCC4)nc(N4CCCC4)n3)CC1)O2 (centres undefined)
Not Active: IC50 [1] | IC50 ([2]; cho) | IC50 [3] | Ki [3] | IC50 [4] | IC50 [5] | IC50 [6] | Ki [6] | IC50 [7]

COc1ccc(CCN(C)CCCC(C#N)(c2ccc(OC)c(OC)c2)C(C)C)cc1OC (centres undefined)
Not Active: IC50 [1] | IC50 ([2]; cho) | IC50 [3] | Ki [3] | IC50 [4] | IC50 [5] | IC50 [6] | Ki [6] | IC50 [7]

CC(C)Cc1ccc([C@@H](C)C(=O)O)cc1 [(R)-IBUPROPHEN]
Not Active: IC50 [1] | IC50 ([2]; cho) | IC50 [3] | Ki [3] | IC50 [4] | IC50 [5] | IC50 [6] | Ki [6] | IC50 [7]

CN(C)CCOC(c1ccccc1)c1ccccc1 [DIPHENHYDRAMINE]
Not Active: IC50 [1] | IC50 ([2]; cho) | IC50 [4] | IC50 [5] | IC50 [7]

Clc1ccc(COC(Cn2ccnc2)c2ccc(Cl)cc2Cl)cc1 (centres undefined) [ECONAZOLE]
Not Active: IC50 [1] | IC50 [4] | IC50 [5] | IC50 [7]
6.48 µM: Ki ([2]; read-out: Ki)
11.9 µM: IC50 ([2]; read-out: IC50)

CCN(CC)CCOc1ccc(/C(=C(/Cl)c2ccccc2)c2ccccc2)cc1 [ENCLOMIPHENE]
Not Active: IC50 [1] | IC50 ([2]; cho) | IC50 [4] | IC50 [5] | IC50 [7]

Fc1ccc(C(c2ccc(F)cc2)N2CCN(C/C=C/c3ccccc3)CC2)cc1 [FLUNARIZINE]
Not Active: IC50 [1] | IC50 ([2]; cho) | IC50 [4] | IC50 [5] | IC50 [7]

CNCCC(Oc1ccc(C(F)(F)F)cc1)c1ccccc1 (centres undefined) [FLUOXETINE]
Not Active: IC50 [1] | IC50 ([2]; cho) | IC50 [4] | IC50 [5] | IC50 [7]

Cc1ccc(NC(=O)c2ccc(CN3CCN(C)CC3)cc2)cc1Nc1nccc(-c2cccnc2)n1 [IMATINIB]
Not Active: IC50 [1] | IC50 ([2]; cho) | IC50 [4] | IC50 [5] | IC50 [7]

CC(C)Oc1ccc2c(=O)c(-c3ccccc3)coc2c1 [IPRIFLAVONE]
Not Active: IC50 [1] | IC50 ([2]; cho) | IC50 [3] | Ki [3] | IC50 [4] | IC50 [5] | IC50 [6] | Ki [6] | IC50 [7]

CC(C)NCC(O)c1ccc(O)c(O)c1 (centres undefined) [ISOPROTERENOL]
Not Active: IC50 [1] | IC50 ([2]; cho) | IC50 [3] | Ki [3] | IC50 [4] | IC50 [5] | IC50 [6] | Ki [6] | IC50 [7]

CNC1(c2ccccc2Cl)CCCCC1=O (centres undefined) [KETAMINE]
Not Active: IC50 [1] | IC50 ([2]; cho) | IC50 [3] | Ki [3] | IC50 [4] | IC50 [5] | IC50 [6] | Ki [6] | IC50 [7]

N#Cc1ccc(C(c2ccc(C#N)cc2)n2cncn2)cc1 [LETROZOLE]
Not Active: IC50 [1] | IC50 ([2]; cho) | IC50 [3] | Ki [3] | IC50 [4] | IC50 [5] | IC50 [6] | Ki [6] | IC50 [7]

CCN1CCC[C@H]1CNC(=O)c1cc(S(N)(=O)=O)ccc1OC [LEVOSULPIRIDE]
Not Active: IC50 [1] | IC50 ([2]; cho) | IC50 [3] | Ki [3] | IC50 [4] | IC50 [5] | IC50 [6] | Ki [6] | IC50 [7]

CCN(CC)CC(=O)Nc1c(C)cccc1C [LIDOCAINE]
Not Active: IC50 [1] | IC50 ([2]; cho) | IC50 [3] | Ki [3] | IC50 [4] | IC50 [5] | IC50 [6] | Ki [6] | IC50 [7]

O=C1Nc2ccc(Cl)cc2C(c2ccccc2Cl)=NC1O (centres undefined) [LORAZEPAM]
Not Active: IC50 [1] | IC50 ([2]; cho) | IC50 [3] | Ki [3] | IC50 [4] | IC50 [5] | IC50 [6] | Ki [6] | IC50 [7]

CO[C@@H]1[C@@H](OC)[C@H](C)[C@@](O)(CC(=O)O)O[C@H]1[C@H](C)[C@H]1O[C@@]2(CC[C@@](C)([C@H]3CC[C@@](C)([C@@H]4O[C@@H]([C@H]5O[C@](C)(O)[C@H](C)C[C@@H]5C)C[C@@H]4O[C@@H]4C[C@H](OC)[C@@H](OC)[C@H](C)O4)O3)O2)C[C@H](O)[C@H]1C [MADURAMICIN ACID]
Not Active: IC50 [1] | IC50 ([2]; cho) | IC50 [3] | Ki [3] | IC50 [4] | IC50 [5] | IC50 [6] | Ki [6] | IC50 [7]

COc1c2occc2cc2ccc(=O)oc12 [METHOXSALEN]
Not Active: IC50 [1] | IC50 ([2]; cho) | IC50 [3] | Ki [3] | IC50 [4] | IC50 [5] | IC50 [6] | Ki [6] | IC50 [7]

C[C@H]1C[C@@H]2[C@H]([C@@H](O)C[C@@]3(C)[C@H]2CC[C@]3(O)C(=O)CO)[C@@]2(C)C=CC(=O)C=C12 [METHYLPREDNISOLONE]
Not Active: IC50 [1] | IC50 ([2]; cho) | IC50 [3] | Ki [3] | IC50 [4] | IC50 [5] | IC50 [6] | Ki [6] | IC50 [7]

Cc1cccc(C)c1OCC(C)N (centres undefined) [MEXILETINE]
Not Active: IC50 [1] | IC50 ([2]; cho) | IC50 [3] | Ki [3] | IC50 [4] | IC50 [5] | IC50 [6] | Ki [6] | IC50 [7]

Nc1cc(N2CCCCC2)nc(N)[n+]1[O-] [MINOXIDIL]
Not Active: IC50 [1] | IC50 ([2]; cho) | IC50 [3] | Ki [3] | IC50 [4] | IC50 [5] | IC50 [6] | Ki [6] | IC50 [7]

CO[C@H]1/C=C/O[C@@]2(C)Oc3c(C)c(O)c4c(O)c(c(/C=N/N5CCN(C6CCCC6)CC5)c(O)c4c3C2=O)NC(=O)/C(C)=C\C=C\[C@H](C)[C@H](O)[C@@H](C)[C@@H](O)[C@@H](C)[C@H](OC(C)=O)[C@@H]1C [RIFAPENTINE]
Not Active: IC50 [1] | IC50 ([2]; cho) | IC50 [3] | Ki [3] | IC50 [4] | IC50 [5] | IC50 [6] | Ki [6] | IC50 [7]

CCCCOc1cc(CC2CNC(=O)N2)ccc1OC (centres undefined) [RO-201724]
11.3 µM: IC50 ([6]; read-out: IC50)
Not Active: IC50 [1] | IC50 ([2]; cho) | IC50 [3] | Ki [3] | IC50 [4] | IC50 [5] | IC50 [7]

CC[C@@H](C(=O)[C@@H](C)[C@@H](O)[C@H](C)[C@@H]1O[C@@H]([C@@H](CC)C(=O)O)CC[C@@H]1C)[C@H]1O[C@]2(C=C[C@@H](O)[C@]3(CC[C@@](C)([C@H]4CC[C@](O)(CC)[C@H](C)O4)O3)O2)[C@H](C)C[C@@H]1C [SALINOMYCIN]
Not Active: IC50 [1] | IC50 ([2]; cho) | IC50 [3] | Ki [3] | IC50 [4] | IC50 [5] | IC50 [6] | Ki [6] | IC50 [7]

O=C(Oc1ccccc1C(=O)O)c1ccccc1O [SALSALATE]
Not Active: IC50 [1] | IC50 ([2]; cho) | IC50 [3] | Ki [3] | IC50 [4] | IC50 [5] | IC50 [6] | Ki [6] | IC50 [7]

O=C(O)c1cn(-c2ccc(F)cc2)c2cc(N3CCNCC3)c(F)cc2c1=O [SARAFLOXACIN]
Not Active: IC50 [1] | IC50 ([2]; cho) | IC50 [3] | Ki [3] | IC50 [4] | IC50 [5] | IC50 [6] | Ki [6] | IC50 [7]

CN[C@H]1CC[C@@H](c2ccc(Cl)c(Cl)c2)c2ccccc21 [SERTRALINE]
Not Active: IC50 [1] | IC50 ([2]; cho) | IC50 [4] | IC50 [5] | IC50 [7]

CC(C)NCC(O)c1ccc(NS(C)(=O)=O)cc1 (centres undefined) [SOTALOL]
Not Active: IC50 [1] | IC50 ([2]; cho) | IC50 [3] | Ki [3] | IC50 [4] | IC50 [5] | IC50 [6] | Ki [6] | IC50 [7]
